The subject of the assay is HIV-1 (IIIB) in MT-4 cells. Nature of the assay: microbe, parasite or virus in culture. Type of assay: cell-based. To be noted: HIV-1, read-out: MT4 EC50.
Setting [1] is: Human immunodeficiency virus 1, IIIB, MT4, MT-4 cells.

This is an account of results in patent US10774053B2, “HIV protease inhibitors” (Gilead Sciences, Inc., priority 2017, dated 2020).

Where two headings read alike, the source gives them in different places.

Consider `CC(C)(C)C[C@]1(c2ccc(-c3cnn(C(F)F)c3)cc2)NC(=N)N([C@H](COC(=O)NC(C)(C)C)c2ccc(Cl)c(-n3ncnc3C(F)F)c2)C1=O` [Compound 183], for which the EC50 – broadly, the midpoint of the concentration-response curve – under setting [1] was 12 nM.
The same measure, in the same setting: in the case of `CC(C)(C)C[C@]1(c2ccc(-c3cnn(C(F)F)c3)cc2)NC(=N)N([C@H](COC(=O)N2CC(F)(F)C2)c2ccc(Cl)c(-n3ncnc3C(F)F)c2)C1=O` [Compound 184] it was 9.93 nM.
On the same count and under the same terms, as for `CC(C)(C)C[C@]1(c2ccc(-c3cnn(C(F)F)c3)cc2)NC(=N)N([C@H](CO)c2ccc(Cl)c(-n3ncnc3C(F)F)c2)C1=O` [Compound 186], the figure is 80.2 nM; as for `CC(C)(C)C[C@]1(c2ccc(-c3ncccn3)cc2)NC(=N)N([C@H](COC(=O)NC2(C(F)(F)F)CC2)c2ccc(Cl)c(-n3ncnc3C(F)F)c2)C1=O` [Compound 187], 11.6 nM; as for `CC(C)(C)C[C@]1(c2ccc(-c3ncccn3)cc2)NC(=N)N([C@H](COC(=O)NC(C)(C)C(F)F)c2ccc(Cl)c(-n3ncnc3C(F)F)c2)C1=O` [Compound 188], 9.9 nM.
With `CC(C)(C)C[C@]1(c2ccc(-c3ncccn3)cc2)NC(=N)N([C@H](COC(=O)NC(C)(C)C(F)(F)F)c2ccc(Cl)c(-n3ncnc3C(F)F)c2)C1=O` [Compound 189], the EC50 under setting [1] came to 9.12 nM.
Still for that read-out and setting: as for `CC(C)(C)C[C@]1(c2ccc(-c3ccccn3)cc2)NC(=N)N([C@H](COC(=O)NC2(C(F)(F)F)CC2)c2ccc(Cl)c(-n3ncnc3C(F)F)c2)C1=O` [Compound 190], the figure is 22.6 nM; as for `CC(C)(C)C[C@]1(c2ccc(-c3ccccn3)cc2)NC(=N)N([C@H](COC(=O)NC(C)(C)C)c2ccc(Cl)c(-n3ncnc3C(F)F)c2)C1=O` [Compound 191], 9.69 nM.
Still for that read-out and setting: in the case of `CC(C)(C)C[C@]1(c2ccc(-c3cnn(C(F)F)c3)cc2)NC(=N)N([C@H](COC(=O)NC2(C(F)(F)F)CC2)c2cc(F)c(Cl)c(-n3ncnc3C(F)F)c2)C1=O` [Compound 192] it was 61.9 nM; in that of `CC(C)(C)C[C@]1(c2ccc(-c3ccccn3)cc2)NC(=N)N([C@H](COC(=O)NC2(C(F)(F)F)CC2)c2cc(F)c(Cl)c(-n3ncnc3C(F)F)c2)C1=O` [Compound 193], 88.3 nM; in that of `CC(C)(C)C[C@]1(c2ccc(-c3ccccn3)cc2F)NC(=N)N([C@H](COC(=O)NC2(C(F)(F)F)CC2)c2ccc(Cl)c(-n3ncnc3C(F)F)c2)C1=O` [Compound 196], 12.7 nM.
Still for that read-out and setting: in the case of `CC(C)(C)C[C@]1(c2ccc(-c3ncccn3)cc2F)NC(=N)N([C@H](COC(=O)NC2(C(F)(F)F)CC2)c2ccc(Cl)c(-n3ncnc3C(F)F)c2)C1=O` [Compound 197] it was 11.2 nM; in that of `CC(C)(C)C[C@]1(c2ccc(-c3ncccn3)cc2F)NC(=N)N([C@H](COC(=O)NC(C)(C)C(F)(F)F)c2ccc(Cl)c(-n3ncnc3C(F)F)c2)C1=O` [Compound 198], 11.5 nM; in that of `CC(C)(C)C[C@]1(c2ccc(-c3cncs3)cc2F)NC(=N)N([C@H](COC(=O)NC2(C(F)(F)F)CC2)c2ccc(Cl)c(-n3ncnc3C(F)F)c2)C1=O` [Compound 199], 7.6 nM.
`Cc1ncsc1-c1ccc([C@@]2(CC(C)(C)C)NC(=N)N([C@H](COC(=O)NC3(C(F)(F)F)CC3)c3ccc(Cl)c(-n4ncnc4C(F)F)c3)C2=O)c(F)c1` [Compound 200]: the EC50 under setting [1] was 26.2 nM.
The same measure, in the same setting: in the case of `Cn1nccc1-c1ccc([C@@]2(CC(C)(C)C)NC(=N)N([C@H](COC(=O)NC3(C(F)(F)F)CC3)c3ccc(Cl)c(-n4ncnc4C(F)F)c3)C2=O)cc1` [Compound 205] it was 20.2 nM; in that of `Cn1ccc(-c2ccc([C@@]3(CC(C)(C)C)NC(=N)N([C@H](COC(=O)NC4(C(F)(F)F)CC4)c4ccc(Cl)c(-n5ncnc5C(F)F)c4)C3=O)cc2)n1` [Compound 206], 6.74 nM; in that of `CC(C)(C)C[C@]1(c2ccc(-c3cnn(C4CC4)c3)cc2)NC(=N)N([C@H](COC(=O)NC2(C(F)(F)F)CC2)c2ccc(Cl)c(-n3ncnc3C(F)F)c2)C1=O` [Compound 207], 13.9 nM.
Still for that read-out and setting: in the case of `CC(C)(C)C[C@]1(c2ccc(-c3cnn(C4CC4)c3)cc2F)NC(=N)N([C@H](COC(=O)NC2(C(F)(F)F)CC2)c2ccc(Cl)c(-n3ncnc3C(F)F)c2)C1=O` [Compound 209] it was 14.7 nM; in that of `Cn1ccc(-c2ccc([C@@]3(CC(C)(C)C)NC(=N)N([C@H](COC(=O)NC4(C(F)(F)F)CC4)c4ccc(Cl)c(-n5ncnc5C(F)F)c4)C3=O)c(F)c2)n1` [Compound 210], 6.94 nM; in that of `CC(C)(C)C[C@]1(c2ccc(-c3cnn(C(F)F)c3)cc2)NC(=N)N([C@H](COC(=O)NC2CC2(F)F)c2ccc(Cl)c(-n3ncnc3C(F)F)c2)C1=O` (stereo partly shown) [Compound 211], 10.8 nM.
Regarding `CC(C)(C)C[C@]1(c2ccc(-c3ccnn3C(F)F)cc2)NC(=N)N([C@H](COC(=O)NC2(C(F)(F)F)CC2)c2ccc(Cl)c(-n3ncnc3C(F)F)c2)C1=O` [Compound 213], the EC50 (MT-4 cells) stood at 25.5 nM.
As to `CC(C)(C)C[C@]1(c2ccc(-c3ccn(C4CC4)n3)cc2F)NC(=N)N([C@H](COC(=O)NC2(C(F)(F)F)CC2)c2ccc(Cl)c(-n3ncnc3C(F)F)c2)C1=O` [Compound 215], under setting [1], the EC50 stood at 18.5 nM.
Still for that read-out and setting: as for `Cc1cc(-c2ccc([C@@]3(CC(C)(C)C)NC(=N)N([C@H](COC(=O)NC4(C(F)(F)F)CC4)c4ccc(Cl)c(-n5ncnc5C(F)F)c4)C3=O)cc2)on1` [Compound 216], the figure is 9.74 nM.
Same read-out and setting: in the case of `CC(C)(C)C[C@]1(c2ccc(-c3cnn(C(F)F)c3)cc2)NC(=N)N([C@H](COC(=O)NCC(F)F)c2ccc(Cl)c(-n3ncnc3C(F)F)c2)C1=O` [Compound 219] it was 8.8 nM; in that of `CC(C)(C)C[C@]1(c2ccc(-c3cnn(C4CC4)c3)cc2)NC(=N)N([C@H](COC(=O)NCC(F)(F)F)c2ccc(Cl)c(-n3ncnc3C(F)F)c2)C1=O` [Compound 221], 15.4 nM.
In the case of `CC(C)(C)C[C@]1(c2ccc(-c3cnn(C4CC4)n3)c(F)c2)NC(=N)N([C@H](COC(=O)NC2(C(F)(F)F)CC2)c2ccc(Cl)c(-n3ncnc3C(F)F)c2)C1=O` [Compound 225], the EC50 under setting [1] is 17.4 nM.
With `CC(C)(C)C[C@]1(c2ccc(-n3nccn3)cc2)NC(=N)N([C@H](COC(=O)NC2(C(F)(F)F)CC2)c2ccc(Cl)c(-n3ncnc3C(F)F)c2)C1=O` [Compound 226], the EC50 under setting [1] came to 10.6 nM.
The same measure, in the same setting: in the case of `CC(C)(C)C[C@]1(c2ccc(-c3cnn(C4CC4)n3)c(F)c2F)NC(=N)N([C@H](COC(=O)NC2(C(F)(F)F)CC2)c2ccc(Cl)c(-n3ncnc3C(F)F)c2)C1=O` [Compound 227] it was 25.4 nM; in that of `COc1ccc([C@@]2(CC(C)(C)C)NC(=N)N([C@H](COC(=O)NC3(C(F)(F)F)CC3)c3ccc(Cl)c(-n4ncnc4C(F)F)c3)C2=O)c(F)c1F` [Compound 228], 14.3 nM; in that of `CC(C)(C)C[C@]1(c2ccc(-n3cncn3)cc2)NC(=N)N([C@H](COC(=O)NC2(C(F)(F)F)CC2)c2ccc(Cl)c(-n3ncnc3C(F)F)c2)C1=O` [Compound 229], 27.6 nM.
Still for that read-out and setting: as for `C[C@H](NC(=O)OC[C@H](c1ccc(Cl)c(-n2ncnc2C(F)F)c1)N1C(=N)N[C@](CC(C)(C)C)(c2ccc(-c3cnn(C4CC4)n3)cc2)C1=O)C(F)(F)F` [Compound 230], the figure is 7.62 nM.
On the same count and under the same terms, in the case of `CC(C)(C[C@]1(c2ccc(-c3cnn(C(F)F)c3)cc2)NC(=N)N([C@H](COC(=O)NC2(C(F)(F)F)CC2)c2ccc(Cl)c(-n3ncnc3C(F)F)c2)C1=O)C1CC1` [Compound 231] it was 12.2 nM.
As for `CC(C)(C)C[C@]1(c2ccc(-c3cn(C4CC4)nn3)cc2)NC(=N)N([C@H](COC(=O)NC2(C(F)(F)F)CC2)c2ccc(Cl)c(-n3ncnc3C(F)F)c2)C1=O` [Compound 232], under “MT-4 cells”, the EC50 was found to be 18.2 nM.
With `C[C@H](NC(=O)OC[C@H](c1ccc(Cl)c(-n2ncnc2C(F)F)c1)N1C(=N)N[C@](CC(C)(C)C)(c2ccc(-c3cn(C4CC4)nn3)cc2)C1=O)C(F)(F)F` [Compound 233], the EC50 under setting [1] worked out at 13.6 nM.
Same read-out and setting: in the case of `C[C@H](NC(=O)OC[C@H](c1ccc(Cl)c(-n2ncnc2C(F)F)c1)N1C(=N)N[C@](CC(C)(C)C)(c2ccc(-c3cnn(C4CC4)c3)cc2)C1=O)C(F)(F)F` [Compound 234] it was 9.28 nM; in that of `CC(C)(C)C[C@]1(c2ccc(-c3cnn(C(F)F)c3)cc2)NC(=N)N([C@H](COC(=O)NC2CC2)c2ccc(Cl)c(-n3cncn3)c2)C1=O` [Compound 235], 9.61 nM.
Same read-out and setting: in the case of `CC(C)(C)C[C@]1(c2ccc(-c3cnn(C(F)F)c3)cc2)NC(=N)N([C@H](COC(=O)NC2(C)CC2)c2ccc(Cl)c(-n3cncn3)c2)C1=O` [Compound 237] it was 8.79 nM.
Regarding `Cc1ncn(-c2cc([C@@H](COC(=O)NC3(C)CC3)N3C(=N)N[C@](CC(C)(C)C)(c4ccc(-c5cnn(C(F)F)c5)cc4)C3=O)ccc2Cl)n1` [Compound 238], the EC50 under setting [1] is 156 nM.
Take `CC(C)(C)C[C@]1(c2ccc(-c3cnn(C(F)F)c3)cc2)NC(=N)N([C@H](COC(=O)NC2(C)CC2)c2ccc(Cl)c(-n3cnc(C4CC4)n3)c2)C1=O` [Compound 239]: the EC50 under setting [1] is 604 nM.
The same measure, in the same setting: in the case of `CC(C)(C)C[C@]1(c2ccc(-c3cnn(C(F)F)c3)cc2)NC(=N)N([C@H](COC(=O)N2CC(F)(F)C2)c2ccc(Cl)c(-n3cncn3)c2)C1=O` [Compound 240] it was 5.06 nM.
Same read-out and setting: in the case of `CC(C)(C)C[C@]1(c2ccc(-c3cnn(C(F)F)c3)cc2)NC(=N)N([C@H](COC(=O)NC(C)(C)C)c2ccc(Cl)c(-n3cncn3)c2)C1=O` [Compound 241] it was 8.36 nM.
On the same count and under the same terms, in the case of `CC(C)(C)C[C@]1(c2ccc(-c3cnn(C4CC4)c3)cc2)NC(=N)N([C@H](COC(=O)NC2CC2)c2ccc(Cl)c(-n3cncn3)c2)C1=O` [Compound 243] it was 9.11 nM.
Consider `CC(C)(C)C[C@]1(c2ccc(-c3ncccn3)cc2)NC(=N)N([C@H](CO)c2ccc(Cl)c(-n3cncn3)c2)C1=O` [Compound 245], for which the EC50 under setting [1] turned out to be 239 nM.
`CC(C)(C)C[C@]1(c2ccc(-c3cnn(C(F)F)c3)cc2)NC(=N)N([C@H](CO)c2ccc(Cl)c(-n3cncn3)c2)C1=O` [Compound 246]: the EC50 under setting [1] amounted to 84.3 nM.
On the same count and under the same terms, as for `Cc1ncnn1-c1cc([C@@H](COC(=O)NC2(C)CC2)N2C(=N)N[C@](CC(C)(C)C)(c3ccc(-c4cnn(C(F)F)c4)cc3)C2=O)ccc1Cl` [Compound 247], the figure is 7.51 nM.
